Molecules are shown by their SMILES.

For the test, the system named is p-ERK pathway in H358 cells. Description: p-ERK pathway inhibition in H358 cells (Advanced phospho-ERK (Thr202/Tyr204) cellular kit, HTRF). Type of test: cell-based. Particulars: Homo sapiens, NCI-H358, 1 h compound incubation. The procedure: The effect of the compounds of the present invention on H358 cell p-ERK pathway was assessed by Advanced phospho-ERK (Thr202/Tyr204) cellular kit method.
The experimental procedures were summarized as follows: H358 cells (ATCC, CRL-5807) were cultured in RPMI1640 (ThermoFisher, A1049101) complete medium containing 10% FBS (Gibco, 10100147) and 100 U/mL penicillin-streptomycin mixed solution (Gibco, 15140163). When the coverage of the cells in the culture vessel reached 80-90%, the cells were pipetted and seeded in a 96-well plate (Corning, 3599) at 50000 cells/well (90 µL RPMI1640 complete medium), and the plate was left to stand for 5 min, cultured in an incubator at 37 °C with 5% CO2 for 6 h, replaced with a serum-free RPMI1640, and starved overnight.
After incubation overnight, 10 µL of a diluted test compound was added to each well using a multi-channel pipette, and the 96-well plate was cultured in an incubator at 37 °C with 5% CO2 for 1 h. The supernatant was poured. The cells were washed once with PBS. 50 µL of a lysis buffer (Advanced phospho-ERK (Thr202/Tyr204) cellular kit, 64AERPEH) was added to each well. The plate was shaken at room temperature at 450 rpm for 1 h. After the cells were completely lysed, 16 µL of the supernatant was added to a 384-well plate (PE, 6007299), mixed energy donor Eu and energy acceptor D2 (D2/Eu = 1:1) were added, and the plate was incubated at room temperature for 4 h. HTRF on the microplate reader was selected for plate reading, Ratio = Signal 665 nm/Signal 620 nm × 10^4. In this experiment, the cell-free group (replaced with 1640 medium) was used as the 100% inhibition group, and the compound-free group in which the cell was added was used as the 0% inhibition group.
The inhibition percentage of H358 cell p-ERK pathway by the compounds of the present invention could be calculated by the following formula: [formula]
IC50 values of the compounds were calculated from 8 concentration points using XLfit (ID Business Solutions Ltd., UK) software by the following formula: Y = Bottom + (Top−Bottom)/(1+10^(∧)((logIC50−X)×slopefactor)) [formula]
Y is the inhibition percentage, X is the logarithmic value of the concentration of the test compound, Bottom is the minimum inhibition percentage, Top is the maximum inhibition percentage, and slope factor is the slope coefficient of the curve. The default fitted curve was used to fit the slope of the S-shaped curve to determine the IC50 value. Table 2. Results of p-ERK inhibition test by the compounds of the present invention
The term IC50 denotes the concentration that gives 50% inhibition. Read a low IC50 as greater potency in that assay. Molecule `Cc1nc(N[C@H](C)c2cccc(C(F)F)c2F)c2cn(C3(CF)CC3)c(=O)c(Nc3cnn(C)c3)c2n1` [Example 93, (R)-4-((1-(3-(difluoromethyl)-2-fluorophenyl)ethyl)amino)-6-(1-(fluoromethyl)cyclopropyl)-2-methyl-8-((1-methyl-1H-pyrazol-4-yl)amino)pyrido[4,3-d]pyrimidine-7(6H)-one] registered an IC50 of 90.3 nM.

For the molecule `CNc1c(=O)n(C2(CF)CC2)cc2c(N[C@H](C)c3cccc(C(F)F)c3F)nc(C)nc12` [Example 77], it took 77.2 nM to reach half-maximal inhibition (IC50). The IC50 values of the last two molecules are within 1.5-fold of each other. As to `Cc1nc(N[C@H](C)c2cccc(C(F)F)c2F)c2cn(C3(CF)CC3)c(=O)c(N3CCOCC3=O)c2n1` [Example 172, (R)-4-(4-((1-(3-(difluoromethyl)-2-fluorophenyl)ethyl)amino)-6-(1-(fluoromethyl)cyclopropyl)-2-methyl-7-oxo-6,7-dihydropyrido[4,3-d]pyrimidin-8-yl)morpholine-3-one], 167 nM corresponded to half-maximal inhibition (IC50). Take `Cc1nc(N[C@H](C)c2cccc(C(F)F)c2F)c2cn(N3CCOCC3)c(=O)c(OCC3(C)COC3)c2n1` [Example 121, (R)-4-((1-(3-(difluoromethyl)-2-fluorophenyl)ethyl)amino)-2-methyl-8-((3-methloxetan-3-yl)methoxy)-6-morpholinylpyrido[4,3-d]pyrimidine-7(6H)-one]: the 50% inhibitory concentration (IC50) amounted to 107 nM.

For `Cc1nc(N[C@H](C)c2cccc(C#N)c2C)c2cn(N3CCOCC3)c(=O)c(-c3ccnc(N4CCOCC4)c3)c2n1` [Example 163], the IC50 turned out to be 43.9 nM.

For `Cc1nc(N[C@H](C)c2cccc(C(F)F)c2F)c2cn(C3(CF)CC3)c(=O)c(N3CC(C)(C#N)C3)c2n1` [Example 75, (R)-1-(4-((1-(3-(difluoromethyl)-2-fluorophenyl)ethyl)amino)-6-(1-(fluoromethyl)cyclopropyl)-2-methyl-7-oxo-6,7-dihydropyrido[4,3-d]pyrimidin-8-yl)-3-methylazetidine-3-carbonitrile], the half-inhibitory concentration (IC50) was found to be 171 nM. For the molecule `Cc1nc(N[C@H](C)c2cccc(C(F)F)c2F)c2cn(C3(CF)CC3)c(=O)c(-n3cc(C#N)cn3)c2n1` [Example 101, (R)-1-(4-((1-(3-(difluoromethyl)-2-fluorophenyl)ethyl)amino)-6-(1-(fluoromethyl)cyclopropyl)-2-methyl-7-oxo-6,7-dihydropyrido[4,3-d]pyrimidin-8-yl)-1H-pyrazole-4-carbonitrile], inhibition was half-maximal at 50.1 nM (IC50).

On to `Cc1nc(N[C@H](C)c2cccc(C(F)F)c2F)c2cn(C3(CF)CC3)c(=O)c(N3Cc4cn(C5CC5)nc4C3)c2n1` [Example 106], for which the half-maximal inhibitory concentration (IC50) amounted to 48.4 nM.

With `Cc1nc(N[C@H](C)c2cccc(C(F)F)c2F)c2cn(C3(CF)CC3)c(=O)c(-c3c(C)noc3C)c2n1` [Example 123, (R)-4-((1-(3-(difluoromethyl)-2-fluorophenyl)ethyl)amino)-8-(3,5-dimethylisoxazol-4-yl)-6-(1-(fluoromethyl)cyclopropyl)-2-methylpyrido[4,3-d]pyrimidine-7(6H)-one], inhibition was half-maximal at 111 nM (IC50). As to `Cc1nc(N[C@H](C)c2cccc(C(F)F)c2F)c2cn(N3CCOCC3)c(=O)c(N3CCO[C@@H](C)C3)c2n1` [Example 79], inhibition was half-maximal at 79.3 nM (IC50). For the molecule `Cc1nc(N[C@H](C)c2cccc(C(F)F)c2F)c2cn(C3(CF)CC3)c(=O)c(N3CCN(CC#N)CC3)c2n1` [Example 134, (R)-2-(4-(4-((1-(3-(difluoromethyl)-2-fluorophenyl)ethyl)amino)-6-(1-(fluoromethyl)cyclopropyl)-2-methyl-7-oxo-6,7-dihydropyrido[4,3-d]pyrimidin-8-yl)piperazin-1-yl)acetonitrile], the 50% inhibitory concentration (IC50) is 49.1 nM. As for `Cc1nc(N[C@H](C)c2cccc(S(F)(F)(F)(F)F)c2)c2cn(N3CCOCC3)c(=O)c(N3CCOCC3)c2n1` [Example 81, (R)-2-methyl-6,8-dimorpholine-4-((1-(3-(pentafluoro-λ^6-sulfanyl)phenyl)ethyl)amino)pyrido[4,3-d]pyrimidine-7(6H)-one], the figure is 77 nM; as for `Cc1nc(N[C@H](C)c2cccc(C(F)F)c2F)c2cn(C3(CF)CC3)c(=O)c(N3CCC(F)(F)CC3)c2n1` [Example 169], 121 nM; as for `Cc1nc(N[C@H](C)c2cccc(C(F)F)c2F)c2cn(C3(CF)CC3)c(=O)c(N3C[C@H]4C[C@@H]3CO4)c2n1` [Example 53, 8-((1R,4R)-2-oxa-5-azabicyclo[2.2.1]heptan-5-yl)-4-(((R)-1-(3-(difluoromethyl)-2-fluorophenyl)ethyl)amino)-6-(1-(fluoromethyl)cyclopropyl)-2-methylpyrido[4,3-d]pyrimidine-7(6H)-one], 176 nM. Regarding `Cc1nc(N[C@H](C)c2cccc(C#N)c2C)c2cn(N3CCOCC3)c(=O)c(N3CCN4C(=O)OC[C@H]4C3)c2n1` [Example 99, 2-methyl-3-((R)-1-((2-methyl-6-morpholine-7-oxo-8-((R)-3-oxotetrahydro-3H-oxazolo[3,4-a]pyrazin-7(1H)-yl)-6,7-dihydropyrido[4,3-d]pyrimidin-4-yl)amino)ethyl)benzonitrile], the 50% inhibitory concentration (IC50) was 112 nM.

Consider `Cc1nc(N[C@H](C)c2cccc(C(F)F)c2F)c2cn(C3(CF)CC3)c(=O)c(N3C4CCC3COC4)c2n1` [Example 44, 8-(3-oxa-8-azabicyclo[3.2.1]oct-8-yl)-4-(((R)-1-(3-(difluoromethyl)-2-fluorophenyl)ethyl)amino)-6-(1-(fluoromethyl)cyclopropyl)-2-methylpyrido[4,3-d]pyrimidine-7(6H)-one], for which the IC50 turned out to be 131 nM. Molecule `Cc1nc(N[C@H](C)c2cccc(C(F)F)c2F)c2cn(C3(CF)CC3)c(=O)c(N3CCC(C)(C#N)CC3)c2n1` [Example 173] showed an IC50 of 98.3 nM. In turn, `COC1(c2c(=O)n(C3(CF)CC3)cc3c(N[C@H](C)c4cccc(C(F)F)c4F)nc(C)nc23)CCOC1` (stereo partly drawn) [Example 140, 4-(((R)-1-(3-(difluoromethyl)-2-fluorophenyl)ethyl)amino)-6-(1-(fluoromethyl)cyclopropyl)-8-(3-methoxytetrahydrofuran-3-yl)-2-methylpyrido[4,3-d]pyrimidine-7(6H)-one] returned an IC50 of 131 nM. With `COc1c(=O)n(N2CCOCC2)cc2c(N[C@H](C)c3cccc([N+](=O)[O-])c3C)nc(C)nc12` [Example 24, (R)-4-((1-(2-methyl-3-nitrophenyl)ethyl)amino)-8-methoxy-2-methyl-6-morpholinepyrido[4,3-d]pyrimidine-7(6H)-one], it took 70.4 nM to reach half-maximal inhibition (IC50).

Molecule `Cc1nc(N[C@H](C)c2cccc(C(F)F)c2F)c2cn(C3(CF)CC3)c(=O)c(N3C[C@@H](F)[C@@H](F)C3)c2n1` [Example 107, 4-(((R)-1-(3-(difluoromethyl)-2-fluorophenyl)ethyl)amino)-8-((3S,4R)-3,4-difluoropyrrolidin-1-yl)-6-(1-(fluoromethyl)cyclopropyl)-2-methylpyrido[4,3-d]pyrimidine-7(6H)-one] came in with an IC50 of 46.9 nM. On to `Cc1nc(N[C@H](C)c2cccc(S(F)(F)(F)(F)F)c2)c2cn(N3CCOCC3)c(=O)cc2n1` [Example 18, (R)-2-methyl-6-morpholine-4-((1-(3-(pentafluoro-λ^6-sulfanyl)phenyl)ethyl)amino) pyrido[4,3-d]pyrimidine-7(6H)-one], for which half-maximal inhibition (IC50) was put at 79.8 nM.

Turning to `Cc1nc(N[C@H](C)c2cccc(C(F)F)c2F)c2cn(C3(CF)CC3)c(=O)c(-c3cnn4c3CCC4)c2n1` [Example 170], it took 138 nM to reach half-maximal inhibition (IC50). For `Cc1nc(N[C@H](C)c2cccc(C(F)F)c2F)c2cn(C3(CF)CC3)c(=O)c(N3CC(S(C)(=O)=O)C3)c2n1` [Example 111, (R)-4-((1-(3-(difluoromethyl)-2-fluorophenyl)ethyl)amino)-6-(1-(fluoromethyl)cyclorol-2-methyl-8-3-methylsulfonylazetidin-1-yl)pyrido[4,3-d]pyrimidine-7(6H)-one], half-maximal inhibition (IC50) required 110 nM. Consider `Cc1nc(N[C@H](C)c2cccc(C(F)F)c2F)c2cn(C3(CF)CC3)c(=O)c(N3C[C@H]4CC[C@@H](C3)O4)c2n1` [Example 54, 8-((1R,5S)-8-oxa-3-azabicyclo[3.2.1]octan-3-yl)-4-(((R)-1-(3-(difluoromethyl)-2-fluorophenyl)ethyl)amino)-6-(1-(fluoromethyl)cyclopropyl)-2-methylpyrido[4,3-d]pyrimidine-7(6H)-one], for which the IC50 worked out at 124 nM. The IC50 values of the last two molecules are within 1.5-fold of each other. The same measure for `COc1c(=O)n(C2(CF)CCN(C(C)=O)C2)cc2c(N[C@H](C)c3cccc(C#N)c3C)nc(C)nc12` (stereo partly drawn) [Example 17, 3-((1R)-1-((6-(1-acetyl-3-(fluoromethyl)pyrrolidin-3-yl)-8-methoxy-2-methyl-7-oxo-6,7-dihydropyrido[4,3-d]pyrimidin-4-yl)amino)ethyl)-2-methylbenzonitrile]: 33.7 nM.

For the origin of these results see patent EP4417607A1, “HETEROCYCLIC COMPOUND AS SOS1 INHIBITOR AND USES THEREOF” (Nanjing Zaiming Pharmaceutical Co., Ltd., priority 2021, dated 2023).
